Results published in patent publication US20140323581A1, “TRANSCRIPTOME WIRING ANALYSIS IN PARKINSON'S DISEASE AND USES THEREOF” (THE TRUSTEES OF COLUMBIA UNIVERSITY IN THE CITY OF NEW YORK, priority 2011, published 2014).
“Also recorded” adds a separate entry of the source. Read-outs that look alike come from different tables or passages of the source.

Key:
aSynL:total ratio [1] = assay: aSynL:total ratio by RT-qPCR in rat primary cortical cultures; assay type: cell-based; conditions: for dopamine-mediated potentiation of the aSynL:total ratio: nomifensine 100 μM with dopamine 100 μM for 24 h
Description: (§1) Cultures of rodent neurons were prepared as described in ^53. Cells were maintained in vitro for 3-5 days before drug treatments or transfection using Lipofectamine 2000 (Iinvitrogen) following manufacturer's instructions.
RT-qPCR analyses were performed as described ^60. The human aSynL:Total mRNA ratio was quantified in terms of AACt ^60 using primer pair Lh for the human long form (HaSynLfw [[…]] SEQ ID NO: 13, and HaSynLry [[…]]) SEQ ID NO: 14 and primer pair Th for human total (HaSynTfw [[…]] SEQ ID NO: 15 and HaSynTrv [[…]] SEQ ID NO: 16). For analysis of either mouse or rat, primer pairs mrL (RaSynLfw [[…]] SEQ ID NO: 17 and RaSynLrv [[…]] SEQ ID NO: 18) and mrT (RaSynTfw [[…]] SEQ ID NO: 19, RaSynTry [[…]] SEQ ID NO: 20) were used.

aSynL:total ratio [2] = assay: In vivo I-Dopa treatment of DAT-Cre/Dicer mice, aSynL:total ratio in brain tissue by RT-qPCR; parameters: species or system mouse
Description: (§2) 2-month old DAT-Cre/Dicer^flox/flox and DAT-Cre/Dicer^flox/+24 or forty-weeks old male PAC-Tg (SNCA)+/−;Snca+/− (a gift from Dr. Robert L. Nussbaum, University of California San Francisco, ^25) received 20 mg/kg I-Dopa with 12 mg/kg benserazide (or PBS vehicle only) by intraperitoneal injection daily for 5 days. […] 1 hour after the last dose, mice were anesthetized by inhaled isoflurane and the brains rapidly removed. The prefrontal cortex, striatum and midbrain were dissected out and stored at −80° C.
(§3) RT-qPCR analyses were performed as described ^60.

human aSyn protein = assay: In vivo I-Dopa treatment of aSyn PAC transgenic mice, aSyn protein in brain tissue by ELISA; parameters: species or system mouse; conditions: 20 mg/kg i.p. daily for 5 days
Description: (§4) Mitochondria were purified using Qproteome Mitochondria Isolation Kit (Qiagen) and membrane fractions were isolated using Subcellular Protein Fractionation Kit (Pierce) following manufacturers' instructions. Human aSyn protein levels were determined using the aSyn Human ELISA kit (Invitrogen). Absorbance was read on a VersaMax ELISA Microplate Reader (Molecular Devices, Inc) at 450 nm. The amount of human aSyn was normalized to total cellular protein as determined with the DC Protein Assay Reagent kit (Bio-Rad). Mitochondrial preparations were validated by Western blot analysis for Tom20 and synaptophysin (see FIG. 12d).
as §2

aSynL:total ratio [3] = tested on: aSynL:total ratio
Description: Total RNA was isolated using a miRNeasy kit (Qiagen) and nascent RNA was purified using the Click-iT® Nascent RNA Capture Kit (Invitrogen) following manufacturer's instructions; total and nascent RNA were then subjected to RT-qPCR analysis as below.
as §3

aSynL:total ratio [4] = assay: aSynL:total ratio in total RNA of SH-SY5Y cells by RT-qPCR (transcription inhibition); assay type: cell-based, human; conditions: SH-SY5Y, dopamine 100 μM, 24 h, no actinomycin D
aSynL:total ratio [5] = assay: In situ hybridization for aSyn CDS and long 3′UTR in primary cortical neuron cultures from aSyn PAC transgenic mice; assay type: cell-based; conditions: 100 μM for 24 h, DIV 4 PAC mouse cortical neurons
Description: as §1
In situ hybridization were performed using QuantiGene® ViewRNA ISH Cell Assay (Panomics) following manufacturer's instructions, with QG ViewRNA TYPE 8 Probe Sets (Panomics) designed to target either human aSyn CDS sequences (bases 264-634 from NM_000345.3; Panomics) or to target human aSynL 3′UTR sequences (bases 1180-1760 from NM_000345.3).

aSyn protein [6] = assay: Total endogenous aSyn protein by ELISA in SH-SY5Y cells; assay type: cell-based, human; conditions: 100 μM for 48 h
Description: as §4

human aSyn 3′UTR = assay: Firefly luciferase-aSyn 3′UTR reporter assay in SH-SY5Y cells; assay type: cell-based; conditions: for dopamine-mediated increase in luciferase accumulation under VMAT2 overexpression: SH-SY5Y co-transfected with VMAT2 vector; for luciferase expression, Firefly/Renilla ratio, 1.1 kb human aSyn 3′UTR vector: 100 μM for 24 h; for luciferase expression, Firefly/Renilla ratio, short aSyn 3′UTR vector: 100 μM for 24 hrs
Description: The human SH-SY5Y neuroblastoma cell line (ATCC) was cultured following the distributor's instructions. Cells were plated at a density of 4×10^5 cells per well (in 48-well plates) in wells coated with 0.1% gelatin (Specialty Media, Millipore) 24 hours prior to transfection. Transfections were performed with Lipofectamine 2000 reagent (Invitrogen) following the manufacturer's instructions. The human HEK-293T cell line (ATCC) was cultured in DMEM (Invitrogen) supplemented with 10% FBS (Invitrogen). Cells were plated at a density of 8×10^3 cells per well (96-well plates). Mir-34b-3p precursor, specific Anti-miR Mir-34b-3p inhibitor, Anti-miR Negative Control #1, and Pre-miR Negative Control #1 were purchased from Ambion. Cells were co-transfected with luciferase reporter plasmids and a small RNA or inhibitor (as indicated) using siPort NeoFx reagent (Ambion) following manufacturer's protocol. Luciferase and Renilla activities were measured 24 h or 48 h after transfection using Dual-Glo luciferase assay system (Promega).

aSyn translation = assay: Endogenous aSyn protein by ELISA normalized to total aSyn mRNA in SH-SY5Y cells (aSyn translation); assay type: cell-based, human; conditions: dopamine 100 uM for 24 h
Text: Mitochondria were purified using Qproteome Mitochondria Isolation Kit (Qiagen) and membrane fractions were isolated using Subcellular Protein Fractionation Kit (Pierce) following manufacturers' instructions. […] Absorbance was read on a VersaMax ELISA Microplate Reader (Molecular Devices, Inc) at 450 nm. The amount of human aSyn was normalized to total cellular protein as determined with the DC Protein Assay Reagent kit (Bio-Rad). Mitochondrial preparations were validated by Western blot analysis for Tom20 and synaptophysin (see FIG. 12d). RT-qPCR analyses were performed as described ^60. […] NO: 17 and […] NO: 18) […] NO: 19, […] NO: 20) were used. The human SH-SY5Y neuroblastoma cell line (ATCC) was cultured following the distributor's instructions. Cells were plated at a density of 4×10^5 cells per well (in 48-well plates) in wells coated with 0.1% gelatin (Specialty Media, Millipore) 24 hours prior to transfection. Transfections were performed with Lipofectamine 2000 reagent (Invitrogen) following the manufacturer's instructions. The human HEK-293T cell line (ATCC) was cultured in DMEM (Invitrogen) supplemented with 10% FBS (Invitrogen). Cells were plated at a density of 8×10^3 cells per well (96-well plates). […] Luciferase and Renilla activities were measured 24 h or 48 h after transfection using Dual-Glo luciferase assay system (Promega).

aSyn protein [7] = assay: aSyn protein by ELISA in mitochondrial and membrane fractions of SH-SY5Y cells; assay type: cell-based, human; conditions: 100 μM for 48 h
Description: as §4

aSyn protein [8] = assay: Colocalization of aSyn and Mitotracker in primary cortical neuron cultures from PAC transgenic mice; assay type: cell-based; conditions: primary mouse cortical neurons, 100 μM for 24 h
Description: as §1
Immunostainings were done as previously described ^59 with Rabbit anti-aSyn (Santa Cruz, 1:200) or Mouse anti-Synaptophysin (Millipore, 1:100) as primary antibodies, and Alexa 555 goat anti-rabbit IgG or Alexa 633 goat anti-mouse IgG (Invitrogen) secondary antibodies. MitoTracker-Orange (Invitrogen, 1:10000) was added into media for 15-20 min in living cell culture. Collocalization analyses were done in R using EBImage package; using Pearson's correlation coefficient.

aSynL:total ratio [9] = conditions: GFP-aSyn wild-type 1.1 kb 3′UTR plasmid, lysed after 48 h
Description: Northern Blots were performed using the NorthernMax kit (Ambion) following manufacturer's instructions. 10 μg of total RNA was purified using miRNeasy kit (Qiagen) and loaded per lane.

[10] = rat primary cortical neurons, RT-qPCR, dopamine, picrotoxin, muscimol, NMDA 100 μM, kainic acid 50 μM, vs vehicle

CN[C@H](CC(=O)O)C(=O)O [NMDA]
aSynL:total ratio (aSynL:total ratio [1]; [10]): did not appear to impact

N[C@@H](Cc1ccc(O)c(O)c1)C(=O)O [I-Dopa]
aSynL:total ratio in midbrain tissue (aSynL:total ratio [2]; 2 month-old control DAT-Cre/Dicer flox/+ mice, 20 mg/kg i.p. daily for 5 days with 12 mg/kg benserazide): significantly increased | aSynL:total ratio in midbrain tissue (aSynL:total ratio [2]; DAT-Cre/Dicer flox/flox mice deficient in mDNs, 20 mg/kg i.p. daily for 5 days): did not alter | aSynL:total ratio in brain regions other than midbrain (aSynL:total ratio [2]; such as striatal tissue, 20 mg/kg i.p. daily for 5 days): not apparent | human aSyn protein in midbrain (ELISA, normalized to total protein) (human aSyn protein): significantly increased | human aSyn protein in other brain regions such as striatum or cortex (human aSyn protein): not

NCCc1ccc(O)c(O)c1 [dopamine]
aSynL:total ratio (aSynL:total ratio [1]; dopamine 10 μM for 24 hrs, cells transfected with vector encoding DAT): significantly increased the sensitivity | aSynL:total ratio (aSynL:total ratio [1]; low extracellular dopamine 10 μM for 24 h, no DAT overexpression): resistant | aSynL:total ratio (aSynL:total ratio [1]; [10]): increase; also recorded: significantly increased | aSynL:total ratio among the labeled RNA population (aSynL:total ratio [3]; 100 μM dopamine exclusively during the pulse-labeling period): robust and durable increase | aSynL:total ratio among the labeled RNA population (aSynL:total ratio [3]; 100 μM dopamine exclusively post-labeling (chase)): did not produce any effect | treatment time after which the increase of the aSynL:total ratio is detectable in the nascent RNA population (aSynL:total ratio [3]; SH-SY5Y, dopamine): ≤ 4 h | treatment time for the dopamine effect on aSynL:total ratio to become detectable in the total RNA population (aSynL:total ratio [3]; SH-SY5Y, dopamine): at least 16 hrs | increase in aSynL:total ratio in nascent RNA (aSynL:total ratio [3]; dopamine 100 μM with EU for 4 h, captured EU-labeled RNA): robustly observed | increase in aSynL:total ratio in total RNA (aSynL:total ratio [3]; dopamine 100 μM with EU for 4 h, total RNA): not in total RNA | aSynL:total ratio in total RNA (aSynL:total ratio [4]): increase | aSynL:total ratio (ratio of in situ hybridization signals) (aSynL:total ratio [5]): increase | endogenous aSyn protein levels (ELISA, normalized to total protein) (aSyn protein [6]): significantly increased | dopamine-mediated increase in luciferase accumulation under VMAT2 overexpression (human aSyn 3′UTR; dopamine 100 μM for 48 h): suppressed | dopamine-mediated increase in luciferase accumulation under VMAT2 overexpression (human aSyn 3′UTR; dopamine 100 μM for 48 h, listed as Dopamine): cancelled | luciferase expression, Firefly/Renilla ratio, 1.1 kb human aSyn 3′UTR vector (human aSyn 3′UTR; SH-SY5Y): increased | luciferase expression, Firefly/Renilla ratio, short aSyn 3′UTR vector (human aSyn 3′UTR; SH-SY5Y): not observed | luciferase expression, Firefly/Renilla ratio, short aSyn 3′UTR vector (human aSyn 3′UTR; SH-SY5Y, listed as Dopamine): do not influence | aSyn 3′UTR mediated translation (luciferase) (human aSyn 3′UTR; SH-SY5Y, vector control, dopamine 100 μM for 48 h): potentiates | aSyn translation: endogenous aSyn protein (ELISA) normalized to total aSyn mRNA (aSyn translation): significant increase | aSyn content within total cell membrane fraction relative to whole cell lysate (ELISA) (aSyn protein [7]): decreased; also recorded: reduction | aSyn protein content in mitochondrial preparations relative to whole cell aSyn content (ELISA) (aSyn protein [7]): increased proportion; also recorded: preferentially increased | fraction of aSyn protein that colocalized with mitochondria (Mitotracker) (aSyn protein [8]): significantly increased | aSynL (1070 nt 3′UTR) transcript relative to shorter (300 nt 3′UTR) transcript, Northern blot (aSynL:total ratio [9]): increase

picrotoxin
aSynL:total ratio (aSynL:total ratio [1]; [10]): significantly increased; also recorded: alter | aSynL:total ratio (ratio of in situ hybridization signals) (aSynL:total ratio [5]): increase | endogenous aSyn protein levels (ELISA, normalized to total protein) (aSyn protein [6]): significantly increased | luciferase expression, Firefly/Renilla ratio, 1.1 kb human aSyn 3′UTR vector (human aSyn 3′UTR; SH-SY5Y): increased | luciferase expression, Firefly/Renilla ratio, short aSyn 3′UTR vector (human aSyn 3′UTR; SH-SY5Y): do not influence | aSyn content within total cell membrane fraction relative to whole cell lysate (ELISA) (aSyn protein [7]): decreased; also recorded: reduction | aSyn protein content in mitochondrial preparations relative to whole cell aSyn content (ELISA) (aSyn protein [7]): increased proportion; also recorded: preferentially increased | fraction of aSyn protein that colocalized with mitochondria (Mitotracker) (aSyn protein [8]): significantly increased

CN1Cc2c(N)cccc2C(c2ccccc2)C1 (stereo not shown) [nomifensine]
dopamine-mediated potentiation of the aSynL:total ratio (aSynL:total ratio [1]): suppressed sensitivity | dopamine-mediated potentiation of the aSynL:total ratio (aSynL:total ratio [1]; listed as Nomifensine): suppresses | dopamine-increased luciferase accumulation, luciferase-aSyn 3′UTR vector (human aSyn 3′UTR; SH-SY5Y, dopamine 100 μM with nomifensine 100 μM, 24 h): suppressed
